Reference: patent US20230286958A1, “PLASMA KALLIKREIN INHIBITORS” (Merck Sharp & Dohme LLC, priority 2020, published 2023)

What was measured:
Human plasma kallikrein = Human plasma kallikrein (Homo sapiens (Human), UniProt P03952); assay: Kallikrein Assay (fluorogenic substrate Acetyl-K-P-R-AFC); assay type: biochemical; settings: Plasma Kallikrein (PKal)
In short: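 Ki is derived from IC50 with the Cheng-Prusoff equation, and IC50 from the inflection point of a four-parameter logistic curve. The rate of AFC release is read with 0.5 nM purified enzyme and […] substrate at room temperature or 37 °C.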

human Factor XIa = human Factor XIa (Homo sapiens (Human), UniProt P03951); assay: Factor XIa Assay (fluorogenic substrate GPR-AFC); assay type: biochemical; settings: Factor XIa (FXIa)
human Factor XIa, sequence (P03951 388-625 limits assumed): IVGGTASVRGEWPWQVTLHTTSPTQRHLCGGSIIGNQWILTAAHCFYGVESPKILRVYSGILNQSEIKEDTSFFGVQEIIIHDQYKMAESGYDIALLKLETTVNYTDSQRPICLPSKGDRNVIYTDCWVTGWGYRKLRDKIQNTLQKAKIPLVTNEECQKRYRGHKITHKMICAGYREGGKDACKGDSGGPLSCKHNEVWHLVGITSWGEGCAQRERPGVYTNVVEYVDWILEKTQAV
human Factor XIa, sequence (P03951 19-387 partner limits assumed): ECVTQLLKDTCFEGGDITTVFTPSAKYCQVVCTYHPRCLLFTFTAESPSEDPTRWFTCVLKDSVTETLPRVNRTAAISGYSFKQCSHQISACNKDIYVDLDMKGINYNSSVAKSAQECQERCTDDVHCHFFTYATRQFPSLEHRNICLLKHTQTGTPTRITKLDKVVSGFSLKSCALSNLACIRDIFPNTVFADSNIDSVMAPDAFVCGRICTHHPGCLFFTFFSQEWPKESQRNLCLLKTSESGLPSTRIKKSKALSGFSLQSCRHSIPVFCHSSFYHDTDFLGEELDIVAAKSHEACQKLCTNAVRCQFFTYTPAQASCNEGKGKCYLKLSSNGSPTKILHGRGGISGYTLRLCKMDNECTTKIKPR

Human plasma kallikrein, sequence (P03952 391-638): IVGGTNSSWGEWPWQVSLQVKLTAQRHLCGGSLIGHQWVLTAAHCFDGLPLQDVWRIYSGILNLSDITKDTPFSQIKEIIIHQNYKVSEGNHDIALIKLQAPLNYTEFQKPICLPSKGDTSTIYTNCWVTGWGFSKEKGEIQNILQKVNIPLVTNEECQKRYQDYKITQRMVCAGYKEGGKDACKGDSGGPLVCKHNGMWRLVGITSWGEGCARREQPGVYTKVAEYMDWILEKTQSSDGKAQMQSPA
Human plasma kallikrein, sequence (P03952 20-390 partner): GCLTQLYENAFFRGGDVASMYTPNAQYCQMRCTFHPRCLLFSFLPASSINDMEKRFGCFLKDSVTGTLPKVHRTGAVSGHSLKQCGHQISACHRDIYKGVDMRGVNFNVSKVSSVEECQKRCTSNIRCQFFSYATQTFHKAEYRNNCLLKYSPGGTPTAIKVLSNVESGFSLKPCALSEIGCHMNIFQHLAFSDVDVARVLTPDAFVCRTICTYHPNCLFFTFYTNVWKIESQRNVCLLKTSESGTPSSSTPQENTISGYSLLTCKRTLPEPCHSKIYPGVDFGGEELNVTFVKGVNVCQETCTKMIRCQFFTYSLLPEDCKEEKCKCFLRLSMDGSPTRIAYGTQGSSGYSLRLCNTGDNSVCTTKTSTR

Row | Compound | IC50 (Human plasma kallikrein) [nM] | IC50 (human Factor XIa) [nM]
1 | Cc1nc([C@H](C)n2cc(NC(=O)c3nc(-c4c(C(F)F)ccc(Cl)c4F)cnc3C)cn2)ncc1N1C[C@H]2C[C@H]2C1=O [Example 1, 6-(3-Chloro-6-(difluoromethyl)-2-fluorophenyl)-3-methyl-N-(1-((S)-1-(4-methyl-5-((1R,5S)-2-oxo-3-azabicyclo[3.1.0]hexan-3-yl)pyrimidin-2-yl)ethyl)-1H-pyrazol-4-yl)pyrazine-2-carboxamide] | 0.9 | > 10000
2 | Cc1nc([C@@H](C)n2cc(NC(=O)c3nc(-c4c(C(F)F)ccc(Cl)c4F)cnc3C)cn2)ncc1N1C[C@H]2C[C@H]2C1=O [Example 2, 6-(3-Chloro-6-(difluoromethyl)-2-fluorophenyl)-3-methyl-N-(1-((R)-1-(4-methyl-5-((1R,5S)-2-oxo-3-azabicyclo[3.1.0]hexan-3-yl)pyrimidin-2-yl)ethyl)-1H-pyrazol-4-yl)pyrazine-2-carboxamide] | 11.9 | > 10000
3 | Cc1ncc(-c2c(C(F)F)ccc(Cl)c2F)nc1C(=O)Nc1cnn(Cc2cnc(N3C[C@H]4C[C@H]4C3=O)c(Cl)c2)c1 [Example 7, N-(1-((5-Chloro-6-((1R,5S)-2-oxo-3-azabicyclo[3.1.0]hexan-3-yl)pyridin-3-yl)methyl)-1H-pyrazol-4-yl)-6-(3-chloro-6-(difluoromethyl)-2-fluorophenyl)-3-methylpyrazine-2-carboxamide] | 1.9 | 527
4 | O=C(Nc1cnn(Cc2cnc(N3C[C@H]4C[C@H]4C3=O)c(Cl)c2)c1)c1cncc(-c2c(C(F)F)ccc(Cl)c2F)n1 [Example 8, N-(1-((5-Chloro-6-((1R,5S)-2-oxo-3-azabicyclo[3.1.0]hexan-3-yl)pyridin-3-yl)methyl)-1H-pyrazol-4-yl)-6-(3-chloro-6-(difluoromethyl)-2-fluorophenyl)pyrazine-2-carboxamide] | 11.9 | > 10000
5 | O=C(Nc1cnn(Cc2ccc(N3C[C@H]4C[C@H]4C3=O)nc2)c1)c1cncc(-c2c(C(F)F)ccc(Cl)c2F)n1 [Example 9, 6-(3-Chloro-6-(difluoromethyl)-2-fluorophenyl)-N-(1-((6-((1R,5S)-2-oxo-3-azabicyclo[3.1.0]hexan-3-yl)pyridin-3-yl)methyl)-1H-pyrazol-4-yl)pyrazine-2-carboxamide] | 1 | > 10000
6 | Cc1ncc(-c2c(C(F)F)ccc(Cl)c2F)nc1C(=O)Nc1cnn(Cc2ccc(N3C[C@H]4C[C@H]4C3=O)nn2)c1 [Example 21, 6-(3-Chloro-6-(difluoromethyl)-2-fluorophenyl)-3-methyl-N-(1-((6-((1R,5S)-2-oxo-3-azabicyclo[3.1.0]hexan-3-yl)pyridazin-3-yl)methyl)-1H-pyrazol-4-yl)pyrazine-2-carboxamide] | 38 | 7010
7 | Cc1nc(N2C[C@H]3C[C@H]3C2=O)ncc1[C@H](C)n1cc(NC(=O)c2cncc(-c3c(C(F)F)ccc(Cl)c3F)n2)cn1 [Example 22, 6-(3-Chloro-6-(difluoromethyl)-2-fluorophenyl)-N-(1-((S)-1-(4-methyl-2-((1R,5S)-2-oxo-3-azabicyclo[3.1.0]hexan-3-yl)pyrimidin-5-yl)ethyl)-1H-pyrazol-4-yl)pyrazine-2-carboxamide] | 1.8 | 2730
8 | Cc1nc(N2C[C@H]3C[C@H]3C2=O)ncc1[C@@H](C)n1cc(NC(=O)c2cncc(-c3c(C(F)F)ccc(Cl)c3F)n2)cn1 [Example 23, 6-(3-Chloro-6-(difluoromethyl)-2-fluorophenyl)-N-(1-((R)-1-(4-methyl-2-((1R,5S)-2-oxo-3-azabicyclo[3.1.0]hexan-3-yl)pyrimidin-5-yl)ethyl)-1H-pyrazol-4-yl)pyrazine-2-carboxamide] | 48.7 | 7600
9 | Cc1nc(N2C[C@H]3C[C@H]3C2=O)ncc1Cn1cc(NC(=O)c2cncc(-c3c(C(F)F)ccc(Cl)c3F)n2)cn1 [Example 24, 6-(3-Chloro-6-(difluoromethyl)-2-fluorophenyl)-N-(1-((4-methyl-2-((1R,5S)-2-oxo-3-azabicyclo[3.1.0]hexan-3-yl)pyrimidin-5-yl)methyl)-1H-pyrazol-4-yl)pyrazine-2-carboxamide] | 10.5 | 3110
10 | O=C(Nc1cnn(Cc2cnc(N3C[C@H]4C[C@H]4C3=O)nc2)c1)c1cncc(-c2c(C(F)F)ccc(Cl)c2F)n1 [Example 25, 6-(3-Chloro-6-(difluoromethyl)-2-fluorophenyl)-N-(1-((2-((1R,5S)-2-oxo-3-azabicyclo-[3.1.0]hexan-3-yl)pyrimidin-5-yl)methyl)-1H-pyrazol-4-yl)pyrazine-2-carboxamide] | 27.7 | 4690

Now from value to compound:

Row | IC50 (Human plasma kallikrein) [nM] | IC50 (human Factor XIa) [nM] | Compound
11 | 6 | 6560 | Cc1ncc(-c2c(C(F)F)ccc(Cl)c2F)nc1C(=O)Nc1cnn(C(C)c2cnc(N3C[C@H]4C[C@H]4C3=O)c3c2OC(F)(F)O3)c1 (single isomer, unassigned) [Example 246, 6-(3-Chloro-6-(difluoromethyl)-2-fluorophenyl)-N-(1-((R or S)-1-(2,2-difluoro-4-((1R,5S)-2-oxo-3-azabicyclo[3.1.0]hexan-3-yl)-[1,3]dioxolo[4,5-c]pyridin-7-yl)ethyl)-1H-pyrazol-4-yl)-3-methylpyrazine-2-carboxamide]
12 | 0.8 | 9240 | Cc1ncc(-c2c(C(F)F)ccc(Cl)c2F)nc1C(=O)Nc1cnn(C(C)c2cnc(N3C[C@H]4C[C@H]4C3=O)c3c2OC(F)(F)O3)c1 (single isomer, unassigned) [Example 247, 6-(3-Chloro-6-(difluoromethyl)-2-fluorophenyl)-N-(1-((S or R)-1-(2,2-difluoro-4-((1R,5S)-2-oxo-3-azabicyclo[3.1.0]hexan-3-yl)-[1,3]dioxolo[4,5-c]pyridin-7-yl)ethyl)-1H-pyrazol-4-yl)-3-methylpyrazine-2-carboxamide]
13 | 22.3 | > 10000 | CC(c1cnc(N2C[C@H]3C[C@H]3C2=O)c2c1OC(F)(F)O2)n1cc(NC(=O)c2cncc(-c3c(C(F)F)ccc(Cl)c3F)n2)cn1 (single isomer, unassigned) [Example 248, 6-(3-Chloro-6-(difluoromethyl)-2-fluorophenyl)-N-(1-((R or S)-1-(2,2-difluoro-4-((1R,5S)-2-oxo-3-azabicyclo[3.1.0]hexan-3-yl)-[1,3]dioxolo[4,5-c]pyridin-7-yl)ethyl)-1H-pyrazol-4-yl)pyrazine-2-carboxamide]
14 | 2.1 | > 10000 | CC(c1cnc(N2C[C@H]3C[C@H]3C2=O)c2c1OC(F)(F)O2)n1cc(NC(=O)c2cncc(-c3c(C(F)F)ccc(Cl)c3F)n2)cn1 (single isomer, unassigned) [Example 249, 6-(3-Chloro-6-(difluoromethyl)-2-fluorophenyl)-N-(1-((S or R)-1-(2,2-difluoro-4-((1R,5S)-2-oxo-3-azabicyclo[3.1.0]hexan-3-yl)-[1,3]dioxolo[4,5-c]pyridin-7-yl)ethyl)-1H-pyrazol-4-yl)pyrazine-2-carboxamide]
15 | 3.2 | 1320 | CC(c1cnc(N2C[C@H]3C[C@H]3C2=O)c2c1OCO2)n1cc(NC(=O)c2cncc(-c3c(C(F)F)ccc(Cl)c3F)n2)cn1 (single isomer, unassigned) [Example 250, 6-(3-Chloro-6-(difluoromethyl)-2-fluorophenyl)-N-(1-((R or S)-1-(4-((1R,5S)-2-oxo-3-azabicyclo[3.1.0]hexan-3-yl)-[1,3]dioxolo[4,5-c]pyridin-7-yl)ethyl)-1H-pyrazol-4-yl)pyrazine-2-carboxamide]
16 | 1 | 2480 | CC(c1cnc(N2C[C@H]3C[C@H]3C2=O)c2c1OCO2)n1cc(NC(=O)c2cncc(-c3c(C(F)F)ccc(Cl)c3F)n2)cn1 (single isomer, unassigned) [Example 251, 6-(3-Chloro-6-(difluoromethyl)-2-fluorophenyl)-N-(1-((R or S)-1-(4-((1R,5S)-2-oxo-3-azabicyclo[3.1.0]hexan-3-yl)-[1,3]dioxolo[4,5-c]pyridin-7-yl)ethyl)-1H-pyrazol-4-yl)pyrazine-2-carboxamide]
17 | 0.9 | 1830 | Cc1ncc(-c2c(C(F)F)ccc(Cl)c2F)nc1C(=O)Nc1cnn(C(C)c2cnc(N3C[C@H]4C[C@H]4C3=O)c3c2OCO3)c1 (single isomer, unassigned) [Example 252, 6-(3-Chloro-6-(difluoromethyl)-2-fluorophenyl)-3-methyl-N-(1-((R or S)-1-(4-((1R,5S)-2-oxo-3-azabicyclo[3.1.0]hexan-3-yl)-[1,3]dioxolo[4,5-c]pyridin-7-yl)ethyl)-1H-pyrazol-4-yl)pyrazine-2-carboxamide]
18 | 2.2 | 733 | Cc1ncc(-c2c(C(F)F)ccc(Cl)c2F)nc1C(=O)Nc1cnn(C(C)c2cnc(N3C[C@H]4C[C@H]4C3=O)c3c2OCO3)c1 (single isomer, unassigned) [Example 253, 6-(3-Chloro-6-(difluoromethyl)-2-fluorophenyl)-3-methyl-N-(1-((S or R)-1-(4-((1R,5S)-2-oxo-3-azabicyclo[3.1.0]hexan-3-yl)-[1,3]dioxolo[4,5-c]pyridin-7-yl)ethyl)-IH-pyrazol-4-yl)pyrazine-2-carboxamide]
19 | 1.4 | 157 | CC(O)c1ncc(-c2c(C(F)F)ccc(Cl)c2F)nc1C(=O)Nc1cnn(Cc2cnc(N3C[C@H]4C[C@H]4C3=O)c3c2OCO3)c1 (single isomer, unassigned) [Example 254, 6-(3-Chloro-6-(difluoromethyl)-2-fluorophenyl)-3-((R or S)-1-hydroxyethyl)-N-(1-((4-((1R,5S)-2-oxo-3-azabicyclo[3.1.0]hexan-3-yl)-[1,3]dioxolo[4,5-c]pyridin-7-yl)methyl)-1H-pyrazol-4-yl)pyrazine-2-carboxamide]
20 | 15.2 | 2200 | CC(c1cnc(N2C[C@H]3C[C@H]3C2=O)nc1CO)n1cc(NC(=O)c2cncc(-c3c(C(F)F)ccc(Cl)c3F)n2)cn1 (stereo in doubt) [Example 169, 6-(3-Chloro-6-(difluoromethyl)-2-fluorophenyl)-N-(1-(1-(4-(hydroxymethyl)-2-(2-oxo-3-azabicyclo[3.1.0]hexan-3-yl)pyrimidin-5-yl)ethyl)-1H-pyrazol-4-yl)pyrazine-2-carboxamide]
